What is called IC50 is the concentration that inhibits the measured activity by half. One may read the Kp as tissue or fluid exposure divided by exposure in the circulation.

This is an account of results in patent publication US9193736B2, “PDE 10a inhibitors for the treatment of type II diabetes” (Janssen Pharmaceutica, NV, priority 2013, dated 2015).

Each structure is given as a SMILES string. Structures can show the parent of a compound that is named as a salt. Where only a bound is given, the exact number is not on record here.

The target of series [1] is Rat recombinant PDE10a (rPDE10a) (Rattus norvegicus (Rat), UniProt Q9QYJ6). In words: In vitro assay PDE10a: rat recombinant PDE10a SPA with 3H-cAMP substrate, IC50. The format is biochemical. The following applies: 60 nM cAMP, read-out: rPDE10a2 IC50. The gist of the method:
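Enzyme expressed in Sf9 cells via baculovirus and Ni-sepharose purified; reaction with 3H-cAMP ran 60 min at rt, stopped with PDE SPA beads. Compounds diluted in DMSO at 100-fold final concentration; blanks omitted enzyme.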

Series [2] addresses Human recombinant PDE10A2 (Homo sapiens (Human), UniProt Q9Y233). In words: In vitro hPDE10a: human recombinant PDE10A2 scintillation proximity assay, IC50. In kind it is biochemical. The following applies: human recombinant PDE10A2, SPA, 60 nM cAMP; read-out: hPDE10a2 IC50. The gist of the method: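 Purified recombinant human PDE10A2 (Ni-sepharose) was assayed by SPA, counting [3H]-AMP product captured on yttrium silicate beads added in zinc sulphate stop solution. Inhibition was expressed as % of activity without compound, with a no-enzyme low control. Repeat data points were aggregated.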

Series [3] is described as follows: PDE10a perfused brain permeability study: plasma concentrations at 30 and 120 min, brain concentration at 120 min, brain/plasma ratio. To be noted: for concentration at 2 h / Kp at 2 h: male, Sprague-Dawley, rat; for Kp at 2 h: brain/plasma.
Experimental: PDE10a-Brain Permeability Assay
A. PDE10a-Perfused Brain Permeability Study Protocol
Drug administration by oral gavage, subcutaneous injection or intravenous was carried out using male Sprague Dawley rats under IACUC protocol (SH-MET3010). Male Sprague Dawley rats (Charles River) ˜300-350 g were maintained on a 4% standard rodent diet (Test Diet 5001). They are allowed ad libitum access to water and food. Room temperature was maintained at 64° F. and humidity at 30-70%.
Three animals per compound were provided a dose of 2 mg/mL in 20% HpbCD/Tris pH 8 by tail i.v. or 30 mpk p.o. or s.c. in 20% HpbCD/Tris pH 8, with PDE10a antagonists. A first blood sample was collected at 30 min via retro-orbital sinus (anesthetic by 70% CO2/30% O2) into heparinzed plasma separator tubes. The blood was centrifuged and 100 μL plasma was placed into a 96 well plate and saved on dry ice.
After the 120 min, the final blood sample was collected via retro-orbital sinus under anesthesia by IP 0.5 cc injection of a 4/1 mixture of Ketaset: AnaSed [(prepared 10 mL Ketaset (100 mg/mL Ketamine)+2.5 mL AnaSed (20 mg/mL Xylazine)]. The rats were then perfused with 400 mL heparinized saline (10,000 units/L) through the left ventricle of the heart; the brains were then removed (not including the medulla), weighed and homogenized in PBS (4 mL/g tissue). The samples were stored at −80° C. and submitted for chemical analysis of blood and brain concentrations. Endpoints of sample analysis consists of the plasma concentrations at 30 and 120 min, plus brain concentrations at 120 min.
Where [4] appears, read: male Sprague Dawley rats, 2 h, perfused or non-perfused brain.

Sequence of Human recombinant PDE10A2 (Q9Y233 267-1055): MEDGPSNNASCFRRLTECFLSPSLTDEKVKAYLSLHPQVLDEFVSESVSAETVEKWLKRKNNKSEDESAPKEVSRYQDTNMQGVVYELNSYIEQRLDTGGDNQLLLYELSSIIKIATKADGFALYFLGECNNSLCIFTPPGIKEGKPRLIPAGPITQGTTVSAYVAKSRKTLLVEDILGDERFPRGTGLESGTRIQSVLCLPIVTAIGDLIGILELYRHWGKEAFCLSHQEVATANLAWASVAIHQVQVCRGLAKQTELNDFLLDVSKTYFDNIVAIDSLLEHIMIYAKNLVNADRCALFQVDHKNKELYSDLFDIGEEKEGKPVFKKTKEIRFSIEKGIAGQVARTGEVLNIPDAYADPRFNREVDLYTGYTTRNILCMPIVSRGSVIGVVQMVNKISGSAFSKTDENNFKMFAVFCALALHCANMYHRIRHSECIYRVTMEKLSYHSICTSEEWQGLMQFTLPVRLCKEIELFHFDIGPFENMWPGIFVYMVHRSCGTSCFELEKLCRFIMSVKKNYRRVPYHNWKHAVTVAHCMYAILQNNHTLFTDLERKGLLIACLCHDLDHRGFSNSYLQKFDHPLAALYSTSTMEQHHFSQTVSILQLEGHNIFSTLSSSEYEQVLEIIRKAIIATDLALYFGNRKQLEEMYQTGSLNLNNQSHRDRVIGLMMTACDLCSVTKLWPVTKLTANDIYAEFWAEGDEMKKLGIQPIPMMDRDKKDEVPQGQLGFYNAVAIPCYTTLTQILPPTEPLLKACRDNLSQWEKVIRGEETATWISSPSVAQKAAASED
Sequence of Rat recombinant PDE10a (rPDE10a) (Q9QYJ6 whole entry): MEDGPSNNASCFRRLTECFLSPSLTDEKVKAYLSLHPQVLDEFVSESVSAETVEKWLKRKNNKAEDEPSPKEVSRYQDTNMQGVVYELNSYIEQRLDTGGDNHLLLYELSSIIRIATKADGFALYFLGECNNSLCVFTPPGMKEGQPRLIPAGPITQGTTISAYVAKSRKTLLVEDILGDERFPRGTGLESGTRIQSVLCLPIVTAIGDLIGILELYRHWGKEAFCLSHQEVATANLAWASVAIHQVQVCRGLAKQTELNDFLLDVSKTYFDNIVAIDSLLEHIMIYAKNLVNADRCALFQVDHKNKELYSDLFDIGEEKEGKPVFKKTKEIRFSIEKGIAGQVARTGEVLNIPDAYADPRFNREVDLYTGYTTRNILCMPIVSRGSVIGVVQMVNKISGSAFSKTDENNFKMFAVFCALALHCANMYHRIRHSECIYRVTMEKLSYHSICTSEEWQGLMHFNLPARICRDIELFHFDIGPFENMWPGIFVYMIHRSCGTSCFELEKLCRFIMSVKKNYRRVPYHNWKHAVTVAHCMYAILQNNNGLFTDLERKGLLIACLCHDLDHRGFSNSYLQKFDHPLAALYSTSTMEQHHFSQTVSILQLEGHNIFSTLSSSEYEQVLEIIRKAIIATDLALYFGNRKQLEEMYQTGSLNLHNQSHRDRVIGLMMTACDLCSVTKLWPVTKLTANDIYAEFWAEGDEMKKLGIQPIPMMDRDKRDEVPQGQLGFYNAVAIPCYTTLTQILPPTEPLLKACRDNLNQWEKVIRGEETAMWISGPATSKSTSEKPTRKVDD

For `Cn1nc(-c2ccc(-c3c(/C=C/c4ccc5ccccc5n4)nc4c(N5CCOCC5)ccnn34)cc2)nc1O` [Cpd 74, (E)-2-Methyl-5-(4-(8-morpholino-2-(2-(quinolin-2-yl)vinyl)imidazo[1,2-b]pyridazin-3-yl)phenyl)-2H-1,2,4-triazol-3-ol], the half-maximal inhibitory concentration (IC50) in series [1] and in series [2] was 13 nM throughout. The results for the concentration at 2 h in series [3] (brain) and in series [3] (plasma) were 34.7 ng/g and 857 ng/mL, respectively. Also, the Kp at 2 h in series [3] is 0.04.
For the molecule `O=C(O)c1ccc(-c2c(/C=C/c3ccc4c(n3)CCCC4)nc3c(N4CCOCC4)ccnn23)cc1` [Cpd 76, (E)-4-(8-Morpholino-2-(2-(5,6,7,8-tetrahydroquinolin-2-yl)vinyl)imidazo[1,2-b]pyridazin-3-yl)benzoic acid], the figures for the IC50 in series [1] and in series [2] were 7 nM and 5 nM, respectively. Also, the results for the concentration at 2 h in series [3] (brain) and in series [3] (plasma) were 9.3 ng/g and 568 ng/mL, respectively. In addition, in series [3], the Kp at 2 h stood at 0.02.
On to `C(=C\c1nc2c(N3CCOCC3)ccnn2c1-c1ccc(Sc2nnc[nH]2)nc1)/c1ccc2ccccc2n1` [Cpd 22, (E)-2-(2-(3-(6-(4H-1,2,4-Triazol-3-ylthio)pyridin-3-yl)-8-morpholinoimidazo[1,2-b]pyridazin-2-yl)vinyl)quinoline], for which the values for the concentration at 2 h in series [3] (brain) and in series [3] (plasma) were 117 ng/g and 788 ng/mL, respectively. In series [3], the Kp at 2 h stood at 0.17.
Consider `O=C(O)C1CCN(c2ccc(-c3c([C@H]4C[C@H](c5ccc6ccccc6n5)C4)nc4c(N5CCOCC5)ccnn34)cc2)CC1` [compound 168, 1-(4-(8-Morpholino-2-((1r,3r)-3-(quinolin-2-yl)cyclobutyl)imidazo[1,2-b]pyridazin-3-yl)phenyl)piperidine-4-carboxylic acid], for which the IC50 in series [2] amounted to 2 nM. In addition, the values for the concentration at 2 h in series [3] (brain) and in series [3] (plasma) were 30.1 ng/g and 1200 ng/mL, respectively. The Kp at 2 h in series [3] came to 0.02.
For `O=C(O)c1ccc(-c2c([C@H]3C[C@H](c4ccc5ccccc5n4)C3)nc3c(N4CCOCC4)ccnn23)cc1` [compound 164, 4-(8-Morpholino-2-((1r,3r)-3-(quinolin-2-yl)cyclobutyl)imidazo[1,2-b]pyridazin-3-yl)benzoic acid trifluoroacetic acid salt], the IC50 in series [2] was under 1 nM. Further, the concentration at 2 h in series [3] (brain) worked out at 0 ng/g; in series [3] (plasma), 162 ng/mL. For the same molecule, in series [3], the Kp at 2 h was 0.
`O=C(O)C(F)(F)F.O=C(O)CN1CCC(c2c(C#Cc3ccc4ccccc4n3)nc3c(N4CCOCC4)ccnn23)CC1` [Cpd 25, 2-(4-(8-Morpholino-2-(quinolin-2-ylethynyl)imidazo[1,2-b]pyridazin-3-yl)piperidin-1-yl)acetic acid trifluoroacetic acid salt]: in series [3] (setting [4]), the “Brain conc 2 h” value was found to be 0 ng/g and the “Ratio Br/Pl Mean 2 h” value was 0. Also, in series [3] (male Sprague Dawley rats, 2 h, perfused or non-perfused brain study), the “Plasma conc 2 h” value is 5.77 ng/mL.
With `CS(=O)(=O)NC(=O)c1ccc(-c2c(CSc3ccc4ccccc4n3)nc3c(N4CCOCC4)ccnn23)cc1` [Cpd 120, N-(Methylsulfonyl)-4-(8-morpholino-2-((quinolin-2-ylthio)methyl)imidazo[1,2-b]pyridazin-3-yl)benzamide], the IC50 was found to be 2 nM in series [1] and 3 nM in series [2].
With `Oc1nc(-c2ccc(-c3c(C#Cc4ccc5ccccc5n4)nc4c(N5CCOCC5)ccnn34)cn2)no1` [Cpd 26, 3-(5-(8-Morpholino-2-(quinolin-2-ylethynyl)imidazo[1,2-b]pyridazin-3-yl)pyridin-2-yl)-1,2,4-oxadiazol-5-ol], the concentration at 2 h was determined as 37.8 ng/g in series [3] (brain) and 150 ng/mL in series [3] (plasma). Besides, the Kp at 2 h in series [3] is 0.26.
With `O=C(O)[C@@H]1CCCN1C(=O)c1ccc(-c2c(/C=C/c3ccc4ccccc4n3)nc3c(N4CCOCC4)ccnn23)cc1` [Cpd 71, (S,E)-1-(4-(8-Morpholino-2-(2-(quinolin-2-yl)vinyl)imidazo[1,2-b]pyridazin-3-yl)benzoyl)pyrrolidine-2-carboxylic acid trifluoroacetic acid salt], the IC50 in series [1] was found to be 8 nM; in series [2], 6 nM.
In the same order, the values of `CC(C)[C@H](NC(=O)c1ccc(-c2c(/C=C/c3ccc4ccccc4n3)nc3c(N4CCOCC4)ccnn23)cc1)C(=O)O` [Cpd 73, (S,E)-3-Methyl-2-(4-(8-morpholino-2-(2-(quinolin-2-yl)vinyl)imidazo[1,2-b]pyridazin-3-yl)benzamido)butanoic acid trifluoroacetic acid salt] are 7 nM and 8 nM.
In the same order, the values of `O=C(O)c1ccc(-c2c(C#Cc3nc4ccccc4s3)nc3c(N4CCOCC4)ccnn23)cc1` [Cpd 87, 4-(2-(Benzo[d]thiazol-2-ylethynyl)-8-morpholinoimidazo[1,2-b]pyridazin-3-yl)benzoic acid] are 1 nM and 1 nM.
The corresponding values for `c1ccc2nc(CCc3nc4c(N5CCOCC5)ccnn4c3-c3ccc(N4CCNCC4)nc3)ccc2c1` [Cpd 13, 4-(3-(6-(piperazin-1-yl)pyridin-3-yl)-2-(2-(quinolin-2-yl)ethyl)imidazo[1,2-b]pyridazin-8-yl)morpholine trifluoroacetic acid salt] are 14 nM and 20 nM.
In the case of `CN1CCN(c2ccc(-c3c(CN(C)c4ccc5ccccc5n4)nc4c(N5CCOCC5)ccnn34)cn2)CC1` [Cpd 15, N-Methyl-N-((3-(6-(4-methylpiperazin-1-yl)pyridin-3-yl)-8-morpholinoimidazo[1,2-b]pyridazin-2-yl)methyl)quinolin-2-amine trifluoroacetic acid salt], the IC50 was found to be 269 nM in series [1] and 676 nM in series [2].
Turning to `O=C(O)c1ccc(-c2c(C3CN(c4ccc5ccccc5n4)C3)nc3c(N4CCOCC4)ccnn23)cc1` [Cpd 157, 4-(8-Morpholino-2-(1-(quinolin-2-yl)azetidin-3-yl)imidazo[1,2-b]pyridazin-3-yl)benzoic acid], the IC50 in series [1] and in series [2] was 2 nM each time.
For the molecule `O=C(O)c1ccc(-c2c(CCc3ccc4ccccc4n3)nc3c(N4CCOCC4)ccnn23)o1` [compound 60, 5-(8-Morpholino-2-(2-(quinolin-2-yl)ethyl)imidazo[1,2-b]pyridazin-3-yl)furan-2-carboxylic acid], the IC50 in series [1] and in series [2] was under 1 nM each time.
`CS(=O)(=O)NC(=O)CCc1ccc(-c2c(/C=C/c3ccc4ccccc4n3)nc3c(N4CCOCC4)ccnn23)cn1` [Cpd 129, (E)-N-(Methylsulfonyl)-3-(5-(8-morpholino-2-(2-(quinolin-2-yl)vinyl)imidazo[1,2-b]pyridazin-3-yl)pyridin-2-yl)propanamide trifluoroacetic acid salt]: the IC50 in series [1] was 6 nM; in series [2], 2 nM.
The corresponding values for `O=C(Nc1ccc2ccccc2n1)c1nc2c(N3CCOCC3)ccnn2c1-c1ccc(N2CCNCC2)nc1` [Cpd 3, 8-Morpholino-3-(6-(piperazin-1-yl)pyridin-3-yl)-N-(quinolin-2-yl)imidazo[1,2-b]pyridazine-2-carboxamide trifluoroacetic acid salt] are 676 nM and 759 nM.
With `COc1cc2ccccc2nc1/C=C/c1nc2c(N3CCOCC3)ccnn2c1-c1ccc(C(=O)O)cc1` [Cpd 119, (E)-4-(2-(2-(3-Methoxyquinolin-2-yl)vinyl)-8-morpholinoimidazo[1,2-b]pyridazin-3-yl)benzoic acid], the IC50 in series [1] and in series [2] was 6 nM throughout.
Turning to `C(=C\c1nc2c(N3CCOCC3)ccnn2c1N1CCCCC1)/c1ccc2ccccc2n1` [compound 154, (E)-4-(3-(Piperidin-1-yl)-2-(2-(quinolin-2-yl)vinyl)imidazo[1,2-b]pyridazin-8-yl)morpholine], the values for the IC50 in series [1] and in series [2] were 28 nM and 72 nM, respectively.
In the same order, the values of `O=C(O)c1ccc(-c2c(CCc3ccc4ccccc4n3)nc3c(N4CCOCC4)ccnn23)cc1O` [compound 64, 2-Hydroxy-4-(8-morpholino-2-(2-(quinolin-2-yl)ethyl)imidazo[1,2-b]pyridazin-3-yl)benzoic acid] are 2 nM and 1 nM.
As for `CS(=O)(=O)NC(=O)c1cccc2nc(/C=C/c3nc4c(N5CCOCC5)ccnn4c3-c3ccccc3)ccc12` [Cpd 122, (E)-N-(Methylsulfonyl)-2-(2-(8-morpholino-3-phenylimidazo[1,2-b]pyridazin-2-yl)vinyl)quinoline-5-carboxamide], the IC50 stood at 7 nM in series [1] and 4 nM in series [2].
For the molecule `O=C1NC(=O)C(c2ccc(-c3c(CCc4ccc5ccccc5n4)nc4c(N5CCOCC5)ccnn34)cc2)O1` (stereo not shown) [Cpd 70, 5-(4-(8-Morpholino-2-(2-(quinolin-2-yl)ethyl)imidazo[1,2-b]pyridazin-3-yl)phenyl)oxazolidine-2,4-dione], the figures for the IC50 in series [1] and in series [2] were 7 nM and 4 nM, respectively.
As to `COc1cc(/C=C/c2nc3c(N4CCOCC4)ccnn3c2-c2ccc(C(=O)O)cc2)nc2ccccc12` [Cpd 135, 4-{2-[(E)-2-(4-Methoxyquinolin-2-yl)ethenyl]-8-morpholin-4-ylimidazo[1,2-b]pyridazin-3-yl}benzoic acid], the figures for the half-maximal inhibitory concentration (IC50) in series [1] and in series [2] were 10 nM and 6 nM, respectively.
Take `O=C(O)[C@@H]1CCCN1C(=O)c1ccc(-c2c(CCc3ccc4ccccc4n3)nc3c(N4CCOCC4)ccnn23)cc1` [Cpd 72, (S)-1-(4-(8-Morpholino-2-(2-(quinolin-2-yl)ethyl)imidazo[1,2-b]pyridazin-3-yl)benzoyl)pyrrolidine-2-carboxylic acid trifluoroacetic acid salt]: the IC50 in series [1] was 8 nM; in series [2], 6 nM.
